This is an account of results in patent US20160297833A1, “THIENOPYRIMIDINES AS MKNK1 AND MKNK2 INHIBITORS” (BAYER PHARMA AKTIENGESELLSCHAFT, priority 2013, published 2016).

pIC50: −log10 of the molar value.

For the first assay, the target named is T1, human full-length MKNK1 (Homo sapiens, UniProt Q9BUB5, T385D).
T1 construct: GST (N); purchased Carna Biosciences 02-145; host or cells: insect cells (baculovirus expression system)
T1 sequence (Q9BUB5 1-424 isoform Q9BUB5-2 T344D): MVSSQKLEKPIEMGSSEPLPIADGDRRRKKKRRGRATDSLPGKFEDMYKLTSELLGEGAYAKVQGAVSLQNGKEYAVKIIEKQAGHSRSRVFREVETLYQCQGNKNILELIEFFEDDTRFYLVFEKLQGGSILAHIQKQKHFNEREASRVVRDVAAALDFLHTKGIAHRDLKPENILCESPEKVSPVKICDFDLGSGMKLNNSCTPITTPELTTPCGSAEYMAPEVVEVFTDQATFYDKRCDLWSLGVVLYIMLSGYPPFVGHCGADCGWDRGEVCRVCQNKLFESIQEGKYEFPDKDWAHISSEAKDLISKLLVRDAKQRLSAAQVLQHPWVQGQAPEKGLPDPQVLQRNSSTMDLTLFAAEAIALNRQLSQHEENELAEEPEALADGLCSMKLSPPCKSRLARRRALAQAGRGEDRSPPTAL
In words: MKNK1 kinase high ATP assay (TR-FRET). Format: biochemical. The following applies: Table 1; MKNK1 kinase high ATP assay, 2 mM ATP; read-out: MKNK1 IC50. The method, boiled down:
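Full-length human MKNK1 (T385D) preincubated 15 min at 22 °C with compound in HEPES pH 7.5/MgCl2/DTT buffer; reaction with 2 mM ATP (final) and 0.06 μM biotinylated peptide (final), 30 min at 22 °C.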
Regarding `CN(C)C(=O)[C@H]1CCc2c(sc3ncnc(Nc4cc5cn[nH]c5cc4S(C)(=O)=O)c23)C1` [Example 186, (7S)—N,N-Dimethyl-4-{[6-(methylsulfonyl)-1H-indazol-5-yl]amino}-5,6,7,8-tetrahydro[1]benzothieno[2,3-d]pyrimidine-7-carboxamide], the pIC50 was 7.35. Still for that read-out and setting: as for `COc1cc2[nH]ncc2cc1Nc1ncnc2sc3c(c12)CC[C@H](C(=O)N1CC(C#N)C1)C3` [Example 35, 1-({(7S)-4-[(6-Methoxy-1H-indazol-5-yl)amino]-5,6,7,8-tetrahydro[1]benzothieno[2,3-d]pyrimidin-7-yl}carbonyl)azetidine-3-carbonitrile], the figure is 9.15.

In the case of `COc1cc2[nH]ncc2cc1Nc1ncnc2sc3c(c12)CC[C@H](C(=O)N1CCCC1)C3` [Example 23, {(7S)-4-[(6-Methoxy-1H-indazol-5-yl)amino]-5,6,7,8-tetrahydro[1]benzothieno[2,3-d]pyrimidin-7-yl}(pyrrolidin-1-yl)methanone], the negative-log IC50 (pIC50) was 9.30.

As to `CN(C)C1CCN(C(=O)[C@H]2CCc3c(sc4ncnc(Nc5cc6cn[nH]c6cc5OCCN5CCCCC5)c34)C2)CC1` [Example 139, [4-(Dimethylamino)piperidin-1-yl][(7S)-4-({6-[2-(piperidin-1-yl)ethoxy]-1H-indazol-5-yl}amino)-5,6,7,8-tetrahydro[1]benzothieno[2,3-d]pyrimidin-7-yl]methanone], the pIC50 was 7.02. On to `C[C@H]1COCCN1C(=O)[C@H]1CCc2c(sc3ncnc(Nc4cc5cn[nH]c5cc4Br)c23)C1` [Example 235, {(7S)-4-[(6-Bromo-1H-indazol-5-yl)amino]-5,6,7,8-tetrahydro[1]benzothieno[2,3-d]pyrimidin-7-yl}[(3S)-3-methylmorpholin-4-yl]methanone], for which the pIC50 was 8.47.

In the case of `CN(C)C(=O)[C@H]1CCc2c(sc3ncnc(Nc4cc5cn[nH]c5cc4OCCN4CCCC4)c23)C1` [Example 112, (7S)—N,N-Dimethyl-4-({6-[2-(pyrrolidin-1-yl)ethoxy]-1H-indazol-5-yl}amino)-5,6,7,8-tetrahydro[1]benzothieno[2,3-d]pyrimidine-7-carboxamide], the pIC50 was 7.12. Still for that read-out and setting: the value for `CN(CCC(F)(F)F)C(=O)[C@H]1CCc2c(sc3ncnc(Nc4cc5cn[nH]c5cc4N4CCCC4)c23)C1` [Example 245, (7S)—N-Methyl-4-{[6-(pyrrolidin-1-yl)-1H-indazol-5-yl]amino}-N-(3,3,3-trifluoropropyl)-5,6,7,8-tetrahydro[1]benzothieno[2,3-d]pyrimidine-7-carboxamide] was 9.22. With `COc1cc2[nH]ncc2cc1Nc1ncnc2sc3c(c12)CC[C@H](C(=O)N(CCN(C)C)Cc1ccncc1)C3` [Example 62, (7S)—N-[2-(Dimethylamino)ethyl]-4-[(6-methoxy-1H-indazol-5-yl)amino]-N-(pyridin-4-ylmethyl)-5,6,7,8-tetrahydro[1]benzothieno[2,3-d]pyrimidine-7-carboxamide], the pIC50 is 10.00. Regarding `C[C@H]1CN(C(=O)[C@H]2CCc3c(sc4ncnc(Nc5cc6cn[nH]c6cc5Cl)c34)C2)C[C@H](C)O1` [Example 229, {(7S)-4-[(6-Chloro-1H-indazol-5-yl)amino]-5,6,7,8-tetrahydro[1]benzothieno[2,3-d]pyrimidin-7-yl}[(2S,6S)-2,6-dimethylmorpholin-4-yl]methanone], the pIC50 was 8.37. For `CN(C)CCN(C)c1cc2[nH]ncc2cc1Nc1ncnc2sc3c(c12)CC[C@H](C(=O)N(C)C)C3` [Example 151, (7S)-4-[(6-{[2-(Dimethylamino)ethyl](methyl)amino}-1H-indazol-5-yl)amino]-N,N-dimethyl-5,6,7,8-tetrahydro[1]benzothieno[2,3-d]pyrimidine-7-carboxamide], the pIC50 is 7.40. In the case of `CCOc1cc2[nH]ncc2cc1Nc1ncnc2sc3c(c12)CC[C@H](C(=O)N1CC(N(C)C)C1)C3` [Example 218, [3-(Dimethylamino)azetidin-1-yl]{(7S)-4-[(6-ethoxy-1H-indazol-5-yl)amino]-5,6,7,8-tetrahydro[1]benzothieno[2,3-d]pyrimidin-7-yl}methanone], the pIC50 is 9.70. In the case of `CN1CCN(C(=O)[C@H]2CCc3c(sc4ncnc(Nc5ccc6[nH]ncc6c5)c34)C2)CC1` [Example 14, [(7S)-4-(1H-Indazol-5-ylamino)-5,6,7,8-tetrahydro[I]benzothieno[2,3-d]pyrimidin-7-yl](4-methylpiperazin-1-yl)methanone], the pIC50 was 8.26. For the compound `CCN(CCN(C)C)C(=O)[C@H]1CCc2c(sc3ncnc(Nc4cc5cn[nH]c5cc4OC)c23)C1` [Example 53, (7S)—N-[2-(Dimethylamino)ethyl]-N-ethyl-4-[(6-methoxy-1H-indazol-5-yl)amino]-5,6,7,8-tetrahydro[1]benzothieno[2,3-d]pyrimidine-7-carboxamide], the pIC50 was 9.52. As for `COc1cc2[nH]ncc2cc1Nc1ncnc2sc3c(c12)CC[C@H](C(=O)N(C)C[C@H](C)OC)C3` [Example 282, (7S)-4-[(6-Methoxy-1H-indazol-5-yl)amino]-N-[(2S)-2-methoxypropyl]-N-methyl-5,6,7,8-tetrahydro[1]benzothieno[2,3-d]pyrimidine-7-carboxamide], the negative-log IC50 (pIC50) was 9.30.

As to `CN(C)C1CCN(c2cc3[nH]ncc3cc2Nc2ncnc3sc4c(c23)CC[C@H](C(=O)N2CCOCC2)C4)CC1` [Example 133, [(7S)-4-({6-[4-(Dimethylamino)piperidin-1-yl]-1H-indazol-5-yl}amino)-5,6,7,8-tetrahydro[1]benzothieno[2,3-d]pyrimidin-7-yl](morpholin-4-yl)methanone], the pIC50 was 7.42. With `COc1cc2[nH]ncc2cc1Nc1ncnc2sc3c(c12)CC[C@H](C(=O)N1CC(N2CCCCC2)C1)C3` [Example 178, {(7S)-4-[(6-Methoxy-1H-indazol-5-yl)amino]-5,6,7,8-tetrahydro[1]benzothieno[2,3-d]pyrimidin-7-yl}[3-(piperidin-1-yl)azetidin-1-yl]methanone], the pIC50 was 9.70. The same measure, in the same setting: as for `C[C@@H](CN)Oc1cc2[nH]ncc2cc1Nc1ncnc2sc3c(c12)CC[C@H](C(=O)N1CCOC[C@@H]1C)C3` [Example 145, {(7S)-4-[(6-{[(2S)-1-Aminopropan-2-yl]oxy}-1H-indazol-5-yl)amino]-5,6,7,8-tetrahydro[1]benzothieno[2,3-d]pyrimidin-7-yl}[(3S)-3-methylmorpholin-4-yl]methanone], the figure is 8.29; as for `CCN(CCO)C(=O)[C@H]1CCc2c(sc3ncnc(Nc4cc5cn[nH]c5cc4OC)c23)C1` [Example 40, (7S)—N-Ethyl-N-(2-hydroxyethyl)-4-[(6-methoxy-1H-indazol-5-yl)amino]-5,6,7,8-tetrahydro[1]benzothieno[2,3-d]pyrimidine-7-carboxamide], 9.70; as for `CN(CCC(F)(F)F)C(=O)[C@H]1CCc2c(sc3ncnc(Nc4ccc5[nH]ncc5c4)c23)C1` [Example 6, (7S)-4-(1H-Indazol-5-ylamino)-N-methyl-N-(3,3,3-trifluoropropyl)-5,6,7,8-tetrahydro[1]benzothieno[2,3-d]pyrimidine-7-carboxamide], 7.96.

In the case of `COc1cc2[nH]ncc2cc1Nc1ncnc2sc3c(c12)CC[C@H](C(=O)N1C[C@@H](C)O[C@@H](C)C1)C3` [Example 161, [(2R,6S)-2,6-dimethylmorpholin-4-yl]{(7S)-4-[(6-methoxy-1H-indazol-5-yl)amino]-5,6,7,8-tetrahydro[1]benzothieno[2,3-d]pyrimidin-7-yl}methanone], the pIC50 is 8.92.

On to `O=C([C@H]1CCc2c(sc3ncnc(Nc4cc5cn[nH]c5cc4Cl)c23)C1)N1CCOCC1` [Example 231, {(7S)-4-[(6-Chloro-1H-indazol-5-yl)amino]-5,6,7,8-tetrahydro[1]benzothieno[2,3-d]pyrimidin-7-yl}(morpholin-4-yl)methanone], for which the pIC50 was 8.40.

The same assay, now with this note: Table 2; ratio of the IC50-value of an R-enantiomer and its corresponding S-enantiomer.
As to `CN1CCN(C(=O)[C@H]2CCc3c(sc4ncnc(Nc5ccc6[nH]ncc6c5)c34)C2)CC1` [Example 14, [(7S)-4-(1H-Indazol-5-ylamino)-5,6,7,8-tetrahydro[I]benzothieno[2,3-d]pyrimidin-7-yl](4-methylpiperazin-1-yl)methanone], the “Activity-Ratio MKNK1” value was found to be 16.1. With `CCN(CCO)C(=O)[C@H]1CCc2c(sc3ncnc(Nc4cc5cn[nH]c5cc4OC)c23)C1` [Example 40, (7S)—N-Ethyl-N-(2-hydroxyethyl)-4-[(6-methoxy-1H-indazol-5-yl)amino]-5,6,7,8-tetrahydro[1]benzothieno[2,3-d]pyrimidine-7-carboxamide], the “Activity-Ratio MKNK1” value is reported as 45.9.
